Data taken from ChEMBL document CHEMBL1201862, “PubChem BioAssay data set” (2004).
Activity calls are given as the source filed them.

Tests used:
Aminopeptidase N = molecular target: T1, Aminopeptidase N (Plasmodium falciparum FcB1/Columbia, UniProt O96935); test: P. falciparum M1AAP inhibitors, biochemical, fluorogenic H-Leu-NHMec substrate, 1536-well (AID 1445); set-up: species or system Plasmodium falciparum 3D7, 3D7
T1 sequence (O96935 whole entry): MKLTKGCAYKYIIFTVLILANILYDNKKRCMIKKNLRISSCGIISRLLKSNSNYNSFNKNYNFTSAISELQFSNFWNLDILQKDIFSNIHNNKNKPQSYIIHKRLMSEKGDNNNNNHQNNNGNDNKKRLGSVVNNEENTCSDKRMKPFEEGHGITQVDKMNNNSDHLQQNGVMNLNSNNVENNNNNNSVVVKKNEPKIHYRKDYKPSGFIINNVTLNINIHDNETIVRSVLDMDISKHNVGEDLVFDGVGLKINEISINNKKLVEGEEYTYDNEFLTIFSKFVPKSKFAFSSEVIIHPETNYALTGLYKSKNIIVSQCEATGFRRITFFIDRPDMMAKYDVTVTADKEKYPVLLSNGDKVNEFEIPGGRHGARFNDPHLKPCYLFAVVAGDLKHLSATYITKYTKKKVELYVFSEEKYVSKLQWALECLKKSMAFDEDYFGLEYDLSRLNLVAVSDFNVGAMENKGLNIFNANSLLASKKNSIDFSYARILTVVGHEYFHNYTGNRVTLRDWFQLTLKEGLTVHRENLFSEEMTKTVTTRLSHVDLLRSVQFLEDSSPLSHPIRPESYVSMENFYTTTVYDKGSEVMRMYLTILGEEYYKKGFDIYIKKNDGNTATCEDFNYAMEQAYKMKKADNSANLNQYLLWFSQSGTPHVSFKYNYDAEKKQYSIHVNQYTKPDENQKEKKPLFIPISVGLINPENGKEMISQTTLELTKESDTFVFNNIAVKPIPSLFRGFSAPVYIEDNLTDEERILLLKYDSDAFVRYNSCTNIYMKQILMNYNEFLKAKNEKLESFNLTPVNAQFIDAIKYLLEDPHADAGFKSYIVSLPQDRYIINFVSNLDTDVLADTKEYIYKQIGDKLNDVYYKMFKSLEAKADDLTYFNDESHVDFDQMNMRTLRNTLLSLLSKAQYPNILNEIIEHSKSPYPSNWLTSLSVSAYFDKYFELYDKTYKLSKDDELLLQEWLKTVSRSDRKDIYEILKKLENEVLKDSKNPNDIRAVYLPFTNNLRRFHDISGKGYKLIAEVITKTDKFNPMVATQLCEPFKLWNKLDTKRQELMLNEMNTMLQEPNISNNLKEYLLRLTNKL

[1] = molecular target: Dual specificity tyrosine-phosphorylation-regulated kinase 1A (Rattus norvegicus, UniProt Q63470); format: biochemical, Homo sapiens
[2] = HEp-2 cell cytotoxicity, dose response, cytotoxicity control for RSV inhibitor project, HTS (AID 2410); format: functional; settings: human respiratory syncytial virus
[3] = molecular target: T2, High affinity choline transporter 1 (Homo sapiens, UniProt Q9GZV3); test: CHT inhibitors, dose response, cell-based, 5-point CRC, membrane potential dye (AID 504840); format: functional
T2 sequence (Q9GZV3 whole entry): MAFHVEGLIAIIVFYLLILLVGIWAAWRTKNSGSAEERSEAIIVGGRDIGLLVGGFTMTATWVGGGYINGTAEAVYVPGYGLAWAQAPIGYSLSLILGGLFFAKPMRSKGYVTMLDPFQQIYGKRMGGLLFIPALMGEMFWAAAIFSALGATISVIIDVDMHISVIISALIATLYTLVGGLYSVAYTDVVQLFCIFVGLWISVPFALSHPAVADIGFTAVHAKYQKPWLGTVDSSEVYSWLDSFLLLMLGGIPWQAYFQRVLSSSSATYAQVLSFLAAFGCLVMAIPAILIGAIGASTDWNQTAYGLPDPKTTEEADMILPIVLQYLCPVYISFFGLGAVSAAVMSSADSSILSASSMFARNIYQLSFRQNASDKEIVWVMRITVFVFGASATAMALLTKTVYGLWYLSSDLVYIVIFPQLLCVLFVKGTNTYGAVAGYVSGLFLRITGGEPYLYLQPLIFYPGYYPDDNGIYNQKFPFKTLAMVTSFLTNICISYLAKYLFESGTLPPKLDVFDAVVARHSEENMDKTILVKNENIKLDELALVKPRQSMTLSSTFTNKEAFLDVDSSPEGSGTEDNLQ

Leucine aminopeptidase = molecular target: T3, Leucine aminopeptidase (Plasmodium falciparum 3D7, UniProt Q8IL11); test: P. falciparum M17LAP inhibitors, primary screen, biochemical, fluorogenic H-Leu-NHMec substrate, 1536-well (AID 1619); format: functional
T3 sequence (Q8IL11 whole entry): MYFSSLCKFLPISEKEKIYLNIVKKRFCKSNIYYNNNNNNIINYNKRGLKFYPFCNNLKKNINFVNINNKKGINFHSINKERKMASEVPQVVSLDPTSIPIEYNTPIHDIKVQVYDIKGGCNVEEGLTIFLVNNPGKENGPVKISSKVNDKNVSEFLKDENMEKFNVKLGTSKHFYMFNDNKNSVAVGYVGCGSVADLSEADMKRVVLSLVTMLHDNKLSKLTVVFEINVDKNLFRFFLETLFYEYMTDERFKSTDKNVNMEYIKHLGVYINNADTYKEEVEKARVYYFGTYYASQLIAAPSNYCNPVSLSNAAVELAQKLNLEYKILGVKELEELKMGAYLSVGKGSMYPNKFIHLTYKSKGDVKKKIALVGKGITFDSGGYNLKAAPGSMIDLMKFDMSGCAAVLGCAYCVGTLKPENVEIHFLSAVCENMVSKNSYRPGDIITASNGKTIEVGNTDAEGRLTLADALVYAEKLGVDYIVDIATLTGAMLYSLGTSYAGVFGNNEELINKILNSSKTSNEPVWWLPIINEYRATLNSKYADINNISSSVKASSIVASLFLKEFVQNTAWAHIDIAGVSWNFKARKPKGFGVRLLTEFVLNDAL

Large T antigen = Large T antigen (Simian virus 40, UniProt P03070); format: functional, Betapolyomavirus macacae;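 note: Confirmatory-stage PubChem screen for compounds that inhibit SV40 T antigen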
[4] = molecular target: T4, Lysine-specific demethylase 4C (Homo sapiens, UniProt Q9H3R0); test: GASC-1 (JMJD2C) histone demethylase inhibitors, dose response, biochemical, DELFIA europium, cherry-picked samples (AID 488835); format: functional
T4 sequence (Q9H3R0 whole entry): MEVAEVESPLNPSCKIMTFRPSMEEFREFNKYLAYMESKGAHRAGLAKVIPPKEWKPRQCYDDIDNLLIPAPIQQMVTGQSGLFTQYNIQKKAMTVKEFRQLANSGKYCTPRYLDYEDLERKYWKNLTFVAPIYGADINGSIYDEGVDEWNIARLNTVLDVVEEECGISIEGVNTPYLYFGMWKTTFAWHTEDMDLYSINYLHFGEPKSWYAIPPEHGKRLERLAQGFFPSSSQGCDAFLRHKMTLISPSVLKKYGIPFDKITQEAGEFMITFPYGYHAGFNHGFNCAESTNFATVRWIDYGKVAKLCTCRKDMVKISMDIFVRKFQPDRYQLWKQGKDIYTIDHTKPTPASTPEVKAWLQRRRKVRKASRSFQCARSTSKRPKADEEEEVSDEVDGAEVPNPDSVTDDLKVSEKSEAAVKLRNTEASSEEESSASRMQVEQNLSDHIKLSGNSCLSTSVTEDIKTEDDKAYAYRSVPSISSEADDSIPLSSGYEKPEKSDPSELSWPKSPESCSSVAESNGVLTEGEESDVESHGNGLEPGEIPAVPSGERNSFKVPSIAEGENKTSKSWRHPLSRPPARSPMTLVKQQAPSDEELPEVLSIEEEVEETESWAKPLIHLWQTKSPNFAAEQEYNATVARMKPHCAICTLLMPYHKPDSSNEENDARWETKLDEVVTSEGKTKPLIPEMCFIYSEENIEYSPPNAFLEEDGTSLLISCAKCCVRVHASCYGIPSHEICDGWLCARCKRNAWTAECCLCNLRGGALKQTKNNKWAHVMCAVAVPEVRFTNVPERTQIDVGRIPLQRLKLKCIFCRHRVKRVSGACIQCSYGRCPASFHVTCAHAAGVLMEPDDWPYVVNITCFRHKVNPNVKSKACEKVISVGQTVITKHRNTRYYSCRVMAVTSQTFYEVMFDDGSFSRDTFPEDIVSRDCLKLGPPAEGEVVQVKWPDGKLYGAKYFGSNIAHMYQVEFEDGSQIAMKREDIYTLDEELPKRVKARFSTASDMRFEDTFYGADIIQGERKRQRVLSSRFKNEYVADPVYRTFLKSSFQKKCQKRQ

[5] = A cytotoxicity screen of small molecule inhibitors of the PhoP region in Salmonella typhi identified in the primary screen. [Related pubchem assays: 1850, 1864, 1985 ]; format: functional
[6] = molecular target: Glyceraldehyde-3-phosphate dehydrogenase (Homo sapiens, UniProt P04406)
Streptokinase A = molecular target: T5, Streptokinase A (Streptococcus pyogenes serotype M1, UniProt P10520); test: S. pyogenes streptokinase expression inhibitors, potency, dose response, plasminogen activation absorbance, OD405 (AID 1914); format: functional, Streptococcus pyogenes M1 GAS;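 note: secreted streptokinase activity via plasminogen activation per viability signal from cell pellet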
T5 sequence (P10520 whole entry): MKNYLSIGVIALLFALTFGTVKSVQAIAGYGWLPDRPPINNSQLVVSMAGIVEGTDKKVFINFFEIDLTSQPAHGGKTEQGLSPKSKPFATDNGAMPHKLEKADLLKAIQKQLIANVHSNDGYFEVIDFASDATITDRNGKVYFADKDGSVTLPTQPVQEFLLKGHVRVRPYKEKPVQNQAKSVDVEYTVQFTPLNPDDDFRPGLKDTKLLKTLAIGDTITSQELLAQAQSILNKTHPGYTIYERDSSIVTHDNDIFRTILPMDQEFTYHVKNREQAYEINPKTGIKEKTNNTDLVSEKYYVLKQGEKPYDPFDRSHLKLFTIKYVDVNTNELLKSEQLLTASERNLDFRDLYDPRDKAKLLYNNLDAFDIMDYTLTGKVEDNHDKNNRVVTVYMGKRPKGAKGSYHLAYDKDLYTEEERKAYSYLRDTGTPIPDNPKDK

Streptococcus = test: Group A Streptococcus viability loss, dose response, counter-screen for streptokinase expression inhibitor project, luminescence, BacTiterGlo (AID 1915); format: functional, organism-based;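 note: potency for reduction of bacterial viability or growth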
[7] = tested on: Streptococcus sp. 'group A'; test: growth inhibition of control SK(-) GAS strain, dose response, counter-screen for streptokinase expression inhibitor project, luminescence, kanamycin, BacTiterGlo, confirmation (AID 1900); format: functional, organism-based
[8] = cytotoxicity in HEK-293T cells, dose response, cytotoxicity control for BCR NF-kB inhibitor project, luminescence, B-cell screen hits (AID 489021); format: functional, cell-based;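 note: HEK-293T cells carrying an NF-kB luciferase reporter; cells exposed to compound for about 14 hours before viability readout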

Sequence of Glyceraldehyde-3-phosphate dehydrogenase (P04406 whole entry): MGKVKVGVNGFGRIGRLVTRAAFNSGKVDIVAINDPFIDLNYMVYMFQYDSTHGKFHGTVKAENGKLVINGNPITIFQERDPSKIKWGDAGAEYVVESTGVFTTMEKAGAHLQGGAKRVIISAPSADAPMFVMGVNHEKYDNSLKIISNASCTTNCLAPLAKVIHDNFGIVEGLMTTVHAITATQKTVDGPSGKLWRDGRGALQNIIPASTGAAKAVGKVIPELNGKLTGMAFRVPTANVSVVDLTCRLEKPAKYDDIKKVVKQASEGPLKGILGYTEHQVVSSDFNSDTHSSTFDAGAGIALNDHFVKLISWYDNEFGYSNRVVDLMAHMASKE
Sequence of Large T antigen (P03070 whole entry): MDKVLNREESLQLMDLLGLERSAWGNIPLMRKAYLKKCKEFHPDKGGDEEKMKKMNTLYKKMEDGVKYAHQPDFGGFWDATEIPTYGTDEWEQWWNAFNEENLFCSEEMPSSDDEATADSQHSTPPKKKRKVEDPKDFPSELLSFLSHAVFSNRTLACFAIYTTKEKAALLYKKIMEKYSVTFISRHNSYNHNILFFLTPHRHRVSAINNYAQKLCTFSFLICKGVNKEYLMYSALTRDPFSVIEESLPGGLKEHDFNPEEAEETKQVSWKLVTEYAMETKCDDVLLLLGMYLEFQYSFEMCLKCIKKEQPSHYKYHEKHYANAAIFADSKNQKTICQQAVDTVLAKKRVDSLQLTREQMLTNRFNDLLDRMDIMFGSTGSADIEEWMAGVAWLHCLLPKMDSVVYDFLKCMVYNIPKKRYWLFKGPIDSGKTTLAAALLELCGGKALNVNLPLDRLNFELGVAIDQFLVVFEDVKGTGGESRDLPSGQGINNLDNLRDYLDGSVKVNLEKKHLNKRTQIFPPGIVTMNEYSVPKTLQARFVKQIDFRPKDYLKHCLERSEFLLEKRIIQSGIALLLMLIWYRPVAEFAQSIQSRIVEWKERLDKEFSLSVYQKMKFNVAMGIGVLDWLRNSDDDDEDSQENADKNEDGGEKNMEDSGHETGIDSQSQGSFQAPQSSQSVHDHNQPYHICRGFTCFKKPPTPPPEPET

Compound: COc1ccc2cc3cc(C(=O)NCC4CCCO4)oc3nc2c1 (centres undefined)
- IC50 (Aminopeptidase N): 79.3 µM (active)
- AC50 [1]: 7.86 µM (active)

Compound: CCOc1ccc(N2C(=O)C(CC(=O)Nc3ccc(F)cc3)N(Cc3ccccn3)C2=S)cc1 (centres undefined)
- CC50 [2]: 32.9 µM (active)
- IC50 (cells): 23.9 µM (active)

Compound: Cc1cc(CN(C)C(=O)c2cc(COc3ccc(F)cc3Cl)on2)n[nH]1
- CC50 [2]: 39.1 µM (active)
- IC50 [3]: 9.89 µM (active)
- IC50 (cells): 24.6 µM (active)

Compound: CC(=O)c1cc2c(O)c(O)ccc2o1
- IC50 (Leucine aminopeptidase): 75.4 µM (active)
- IC50 (Large T antigen): 18.5 µM (active)
- AC50 [4]: 9.2 µM (active)

Compound: CCOc1ccc(NC(S)=Nc2cc(C)[nH]n2)cc1
- EC50 [5]: > 50 µM (active)

Compound: CC(=O)Oc1ccc(-c2cccc(C(=O)NCC(=O)O)c2)cc1
- IC50 [6]: > 100 µM (not active)

Compound: COc1ccc2[nH]cc(C(=O)CN3CCN(C4CCCCC4)CC3)c2c1
- IC50 (cells): 36.6 µM (active)

Compound: COc1cc2[nH]c(=S)n(CC3CCCO3)c(=O)c2cc1OC (centres undefined)
- EC50 [5]: > 50 µM (active)

Compound: O=C(CN1C2=NCCCN2c2ccccc21)c1ccc2c(c1)OCO2
- EC50 [5]: > 50 µM (active)

Compound: N#CC(C(=O)C12CC3CC(CC(C3)C1)C2)c1nc2ccccc2[nH]1 (centres undefined)
- EC50 [5]: > 50 µM (active)
- EC50 (Streptokinase A): 66 µM (active)
- EC50 (Streptococcus): > 150 µM (not active)
- EC50 [7]: 5.14 µM (active)

Compound: COc1ccc(-c2csc3nc(-c4cccnc4)nc(N4CCC(C(N)=O)CC4)c23)cc1OC
- IC50 [8]: 43.7 µM (inactive)

Compound: COC(=O)Cc1cc(=O)oc2cc(O)ccc12
- IC50 (Aminopeptidase N): 36.6 µM (active)

Compound: C/C(=N\Nc1nc(Nc2ccccc2)nc(N2CCOCC2)n1)c1cccs1
- IC50 [8]: > 80 µM (inactive)

Compound: COc1cc(/C=N/NC(=O)COc2c(C)cc([N+](=O)[O-])cc2C)ccc1OC(=O)c1ccccc1
- CC50 [2]: 41.7 µM (active)
- IC50 (cells): 17.9 µM (active)
